# “And” between values parts separate entries of the source, which are not always exact repeats. Equal entries are not always repeated.
# Tested on: children with NS
# Experiment: Total Immunosuppression Score (TIS) before and after addition of pioglitazone
# Type: in vivo, human
# Parameters: % TIS reduction (0-1 mo) / % TIS reduction (5-7 mo) / % TIS reduction (0-1 mo), Mean (SEM) / % TIS reduction (5-7 mo), Mean (SEM): concentration or dose not given beside the values
# Description: The reduction in overall immunosuppression can be quantified by comparing the “Total Immunosuppression Score” (TIS) prior to and after the addition of a TZD to the drug regimen (see FIG. 3 herein). The TIS is based on a combination of the number of immunosuppressive drugs being administered and the dose at which each drug is administered. The score for each drug is on a scale of 0 to 4, where: 0=no drug administered; 1=drug administered up to less than 25% of the standardized full dose; 2=drug administered between 25% and less than 50% of the standardized full dose; 3=drug administered between 50% and less than 75% of the standardized full dose; 4=drug administered between 75% and 100% of the standardized full dose. As an example, if five different immunosuppressive medicaments are co-administered to a subject each at their standardized full dose, the TIS=20.
# For each patient, a Total Immunosuppression Score (TIS) (see Table 3) was calculated to quantitate overall immunosuppression. For each class of immunosuppressive drug administered during a given time period, a score of 0-4 was assigned based on the percentage of a full dose for each patient's body size (0=0%; 1=<25%; 2=≥25-<50%; 3=≥50-<75%: 4=≥75%).
# Quantitative data, such as patient age, duration of NS, pioglitazone dosage, and outcomes of UPCR, TIS, and serum albumin, were summarized as means (standard errors of mean), while categorical data such as renal survival status were summarized as frequency (percent). Due to a small sample size, Responders and Non-responders were compared using Wilcoxon Rank Sum tests on quantitative variables and Fisher's exact tests on categorical variables. For both Responders and Non-responders, pre-pioglitazone to post-pioglitazone initiation changes in UPCR, TIS, and serum albumin levels were analyzed using Wilcoxon Signed Rank tests. Numbers of hospitalizations pre-pioglitazone and post-pioglitazone initiation were analyzed and compared using Poisson distributions. Statistical significance was assessed at both the 0.05 and 0.10 levels. All analyses were conducted using SPSS software ver. 26 (IBM, Armonk, NY, USA).
# [1] = Patient 1 (Responder), pre-PIO 13
# [2] = Patient 1 (Responder), vs 0-1 mo pre-PIO
# [3] = Patient 2 (Responder), pre-PIO 12
# [4] = Patient 2 (Responder), vs 0-1 mo pre-PIO
# [5] = Patient 3 (Responder), pre-PIO 0
# [6] = Patient 3 (Responder), vs 0-1 mo pre-PIO (TIS 0)
# [7] = Patient 5 (Non-responder), pre-PIO 4
# [8] = Patient 5 (Non-responder), vs 0-1 mo pre-PIO
# [9] = Patient 6 (Responder), pre-PIO 2
# [10] = Patient 7 (Non-responder), pre-PIO 3
# [11] = Patient 7 (Non-responder), vs 0-1 mo pre-PIO
# [12] = Patient 8 (Responder), pre-PIO 4
# [13] = Patient 8 (Responder), vs 0-1 mo pre-PIO
# [14] = mean of 5 Responders, pre-PIO 6.20
structure (smiles),measurement,setting,value
CCc1ccc(CCOc2ccc(CC3SC(=O)NC3=O)cc2)nc1 (stereo not shown) [pioglitazone],mean TIS,"Non-responders, before and after pioglitazone treatment",approximately 3.5
same,Post-PIO TIS (0-1 mo),[1],11
same,Post-PIO TIS (5-7 mo),[1],5
same,% TIS reduction (0-1 mo),[2],15% and 15.4%
same,% TIS reduction (5-7 mo),[2],62% and 61.5%
same,Post-PIO TIS (0-1 mo),[3],12
same,Post-PIO TIS (5-7 mo),[3],8
same,% TIS reduction (0-1 mo),[4],0%
same,% TIS reduction (5-7 mo),[4],33% and 33.3%
same,Post-PIO TIS (0-1 mo),[5],2
same,Post-PIO TIS (5-7 mo),[5],1
same,% TIS reduction (0-1 mo),[6],−∞
same,% TIS reduction (5-7 mo),[6],−∞
same,TIS increase,"Patient 4 (Non-responder), over the next 1 month",133%
same,Post-PIO TIS (0-1 mo),"Patient 4 (Non-responder), pre-PIO 3",7
same,% TIS reduction (0-1 mo),"Patient 4 (Non-responder), vs 0-1 mo pre-PIO",−133%
same,Post-PIO TIS (0-1 mo),[7],4
same,Post-PIO TIS (5-7 mo),[7],4
same,% TIS reduction (0-1 mo),[8],0.00%
same,% TIS reduction (5-7 mo),[8],0.00%
same,Post-PIO TIS (0-1 mo),[9],2
same,Post-PIO TIS (5-7 mo),[9],2
same,% TIS reduction (5-7 mo),"Patient 6 (Responder), vs 0-1 mo pre-PIO",0.00%
same,Post-PIO TIS (0-1 mo),[10],3
same,Post-PIO TIS (5-7 mo),[10],3
same,% TIS reduction (0-1 mo),[11],0.00%
same,% TIS reduction (5-7 mo),[11],0.00%
same,Post-PIO TIS (0-1 mo),[12],3
same,Post-PIO TIS (5-7 mo),[12],2
same,% TIS reduction (0-1 mo),[13],25%
same,% TIS reduction (5-7 mo),[13],50%
same,decrease in overall exposure to immunosuppressive medications (mean TIS),"Responders, mean TIS 6.2 at 0-1 month pre- to 3.6 at 5-7 months post-pioglitazone",42%
same,"% TIS reduction (0-1 mo), Mean (SEM)",mean of 5 Responders,−∞
same,"% TIS reduction (5-7 mo), Mean (SEM)",mean of 5 Responders,−∞
same,"Post-PIO TIS (0-1 mo), Mean (SEM)",[14],6.00
same,"Post-PIO TIS (5-7 mo), Mean (SEM)",[14],3.6
same,"% TIS reduction (0-1 mo), Mean (SEM)",mean of Non-responders,−44.4%
same,"Post-PIO TIS (5-7 mo), Mean (SEM)",mean of Non-responders (Patient 4 ESRD),3.50
same,"% TIS reduction (5-7 mo), Mean (SEM)",mean of Non-responders (Patient 4 NA),0.00%
same,"Post-PIO TIS (0-1 mo), Mean (SEM)","mean of Non-responders, pre-PIO 3.33",4.67

# Reference: patent US20250281507A1, “METHODS OF TREATING NEPHROTIC SYNDROME” (The Research Institute at Nationwide Children's Hospital, priority 2021, published 2025)
